Data on 88 molecules can be found in a melting point compilation (Tetko et al.; mined from patent text by program, amines drawn as free bases though some values may be those of a salt).

Where only a bound is given, the exact number is not on record here.

For orientation: melting point means the temperature of the solid-liquid transition. Regarding `COc1ccc(-c2nc(C(C)=O)cn2-c2ccc(OC)cc2)cc1`, the melting point was in the range of 116 to 117 °C.

`CC(C(N)=O)c1ccc2c(c1)C(=O)Cc1cc([N+](=O)[O-])ccc1S2` (stereo not drawn) came in with a melting point of 207 to 209 °C.

`COc1ccc(N2CCOCC2)c2sc(-c3nc4ccc(C)nc4[nH]3)nc12`: the melting point lay within 200 to 210 °C.

Molecule `COc1ccc(OC)c(S(=O)(=O)NC(=O)C(C)Br)c1` (stereo not drawn) came in with a melting point of 116 to 118 °C.

`CN(C)c1ncc(-c2ccc(Cl)cc2Cl)c(N)n1`: the melting point stood at 151 °C.

As for `C#CC(C)(C)c1cc(N)no1`, the melting point lay in the range of 98 to 100 °C.

`O=C(NCCO)c1cccc(-c2ccc(F)c3cc(Cc4cccc(C(F)(F)F)c4)oc23)c1` returned a melting point of 159 to 160 °C.

`Cc1nc(CN(C)C(=O)N[C@H](C(=O)N[C@@H](Cc2ccccc2)[C@@H](O)C[C@H](Cc2ccccc2)NC(=O)OCc2cccnc2)C(C)C)cs1` had a melting point of 66 to 69 °C.

With `CSc1cnc(NC(=O)c2ccc(OC(C)=O)cc2)s1`, the melting point lay within 193 to 196 °C.

The molecule `O=C1N=NC(=O)c2c1[nH]c1cc(Br)cc(Br)c21` displayed a melting point of more than 400 °C.

In turn, `NS(=O)(=O)c1cc(S(N)(=O)=O)c(C(Cl)=C(Cl)Cl)cc1NCc1ccco1` displayed a melting point of 155 °C.

`CC(=O)c1cccc(Oc2ncccc2OCCCc2ccncc2)c1` registered a melting point of 117 to 119 °C.

As to `CCOC(=O)c1cc2cc(NC(C)C)ccc2nn1`, the melting point fell in the range of 167 to 168 °C.

In turn, `COc1cc(NS(=O)(=O)CC(=O)c2ccccc2)c2c(c1)OC(C)C2` (stereo not drawn) showed a melting point of 143 to 145 °C.

Molecule `CCOCc1nc2cnc3cc(-c4ccccc4)ccc3c2n1CC1CCN(C(=O)OC(C)(C)C)CC1` registered a melting point of 166 to 167 °C.

On to `O=C(C1CC1)N1CCCCc2cc(C(O)(C(F)(F)F)C(F)(F)F)ccc21`, for which the melting point fell in the range of 165 to 167 °C.

As for `Cc1nc(-c2ccccc2)nc(-c2cccc([N+](=O)[O-])c2)c1CC#N`, the melting point lay within 219 to 221 °C.

The molecule `Nc1nccc(Oc2ccc3c(C(=O)Nc4cccc(C(F)(F)F)c4)cccc3c2)n1` yielded a melting point of 218 °C.

The molecule `COC(=O)COc1ccc([C@H]2c3ccc(O)cc3OC[C@H]2c2ccccc2)cc1` (racemic) returned a melting point of 133 to 134 °C.

`CCCc1c(OCCCSc2nnc(SCC(=O)O)s2)ccc(C(C)=O)c1O` came in with a melting point of 129 to 130 °C.

For the molecule `Cc1cccc(-c2ccc3ccc(NC(=O)c4cccc(Br)c4)nc3n2)c1`, the melting point was found to be 100 °C.

Take `CN1C(=O)C2(COc3cc4c(cc32)OCCO4)c2ccccc21` (stereo not drawn): the melting point was in the range of 152 to 154 °C.

In turn, `NC(=O)N(O)Cc1ccc(OCc2ccccc2)cc1` gave a melting point of 147 to 149 °C.

With `CC(C)(Oc1ccc(F)cc1Cl)C(=O)O`, the melting point lay within 63 to 65 °C.

With `C=C(Cl)CNC(=S)SCc1ccccc1`, the melting point was 46 to 48 °C.

`O=C(O)CCCCC(=O)Oc1ccc([N+](=O)[O-])cc1` gave a melting point of 104 to 105 °C.

`CCOC(=O)c1c(Cn2ccccc2=O)nc2cc(OC)c(OC)cc2c1-c1ccc(OC)c(OC)c1`: the melting point is 154 to 156 °C.

In turn, `Cc1cc(=O)n2c3c(cc(C(O)(C(F)(F)F)C(F)(F)F)cc13)CCCC2` displayed a melting point of 169 to 171 °C.

Molecule `CC(C)(C)C(=O)OC1CC(=O)C2(C)CCC3C(CCC4=CC(=O)CCC43C)C12` (stereo not drawn) gave a melting point of 148 to 150 °C.

`CCOC(=O)c1cnn(-c2c(Cl)cc(C(F)(F)F)cc2Cl)c1N`: the melting point was 131 to 134 °C.

`C=NOC(c1ccc(C(=O)O)cc1)c1c(C)nn(C)c1Oc1ccccc1` (stereo not drawn) showed a melting point of 183 °C.

`O=C(NNS(=O)(=O)c1ccccc1)c1nccc2ccccc12` had a melting point of 198 to 200 °C.

`CCCCC/C=C\C/C=C\CCCCCCC[C@@H](C[C@@H]1OC(=O)[C@H]1CC)OC(=O)[C@H](CC(C)C)NC=O` yielded a melting point of 48 to 53 °C.

In the case of `Cc1cc2cc(CN3CCCC3)cnc2cc1NC(=O)c1ccc(-c2ccsc2)cc1`, the melting point came out at 187 °C.

The molecule `COc1cccc(C(=O)O)c1OC(C)=O` showed a melting point of 139 to 140 °C.

Turning to `CC(C)(C)NC(=O)Nc1nc2nc(N)ncc2cc1-c1c(Cl)ccc(Cl)c1Cl`, the melting point fell in the range of 329 to 330 °C.

`N[C@H]1CC[C@H](Nc2cc(C(F)(F)F)nc3c(C(F)(F)F)cccc23)CC1` registered a melting point of 173 °C.

The molecule `CC(=O)SCC1=C(CSC(C)=O)C(=O)C(CSC(C)=O)=C(CSC(C)=O)C1=O` gave a melting point of 133 to 135 °C.

`CCCCCCCCc1ccc(C(=O)Cc2cccc(C(=O)O)c2)cc1` returned a melting point of 103 to 110 °C.

For `O=C(Cc1cc(F)cc(F)c1)Nc1ccc(NCc2ccc(F)cc2)nc1N1CCOCC1`, the melting point is 196 to 198 °C.

Consider `CC(O)C(=O)Nc1ccc(C2=NNC(=O)CC2C)cc1` (stereo not drawn), for which the melting point fell in the range of 181 to 182 °C.

Turning to `COC(=O)C(=CNc1ncnc2ccc(NC(=O)C(C)(C)C)cc12)C(=O)OC`, the melting point is 189 to 190 °C.

Take `N#Cc1cc2c(c(N3CCN(CCCCN4C(=O)c5ccccc5S4(=O)=O)CC3)c1)OCCO2`: the melting point fell in the range of 162 to 164 °C.

Regarding `CCOC(=O)c1cc(SC#N)c(-c2ccc(Cl)cc2)[nH]1`, the melting point lay in the range of 138 to 141 °C.

`CNCC1Cc2cccc(-c3c(C)cccc3C)c2O1` (stereo not drawn) came in with a melting point of more than 250 °C.

`O=C(Nc1cccc(-n2nc(C(F)(F)F)cc2C(F)(F)F)c1)c1ccc(F)cc1F`: the melting point lay within 133 to 134 °C.

The molecule `O=C(Nc1ccc2nc(CN3CCCC3)ccc2c1)c1ccc(-c2ccccc2)cc1` displayed a melting point of 181 to 183 °C.

Molecule `CC(=O)OC1CSC(Oc2cc(C)c(Cl)cc2-c2ccno2)C(OC(C)=O)C1OC(C)=O` (stereo not drawn) came in with a melting point of 203 °C.

The molecule `CC(C)(C)C(C)(C)Nc1nc(Cl)nc(NC(C)(C)C(C)(C)C)n1` gave a melting point of 129 to 131 °C.

Take `O=C(O)CC(Cc1c[nH]c2ccccc12)(C(=O)O)C(=O)O`: the melting point fell in the range of 184 to 185 °C.

Regarding `COc1ccc(C2NCCc3c2[nH]c2ccccc32)cc1` (stereo not drawn), the melting point worked out at 131 °C.

`COC(=O)C=Cc1ccc(OC)c(OCc2nc(-c3ccccc3)oc2C)c1` registered a melting point of 135 to 136 °C.

As to `Cn1c(-c2ccccc2S(C)=O)nc2ccccc21` (stereo not drawn), the melting point fell in the range of 157 to 159 °C.

Regarding `CC(=O)OC1CSC(Oc2ccc(I)nc2F)C(OC(C)=O)C1OC(C)=O` (stereo not drawn), the melting point came to 234 °C.

In turn, `O=C1OC(Cl)(C(=O)OCc2ccc([N+](=O)[O-])cc2)c2ccccc21` (stereo not drawn) returned a melting point of 132 to 134 °C.

In the case of `CNC(=O)Oc1cccc(C2CCCN2CCN2C(=O)c3ccccc3C2=O)c1` (stereo not drawn), the melting point lay within 96 to 98 °C.

Molecule `CC(C)C(=O)Nc1ccc2ncn3c(=O)c(C(=O)O)cnc3c2c1` came in with a melting point of 312 to 314 °C.

`Nc1cnc2ccc(C(F)(F)F)cc2c1-c1ccccc1` yielded a melting point of 107 to 108 °C.

`O=S(=O)(Nc1ccc(-c2n[nH]c3c2Cc2ccccc2-3)cc1)c1ccccc1` came in with a melting point of 286 to 288 °C.

As to `Cn1ncc2nn(-c3cccc(C(F)(F)F)c3)c(=O)cc21`, the melting point lay within 160 to 163 °C.

The molecule `COC(=O)CCCc1cc2c(Cl)c(C#N)cnc2s1` had a melting point of 55 to 57 °C.

Regarding `CC(=O)c1cc(CC2CO2)c(OCCCCC#N)cc1O` (stereo not drawn), the melting point lay in the range of 86 to 87 °C.

Take `CCOC(=O)C(=O)CC(=O)c1cn(Cc2c(F)cccc2F)c2ccccc2c1=O`: the melting point fell in the range of 172 to 173 °C.

`O=C(Nc1ccncc1)C1c2ccccc2CCc2ccccc21` yielded a melting point of 148 to 149 °C.

For the molecule `O=C(Nc1ccc2ccc(-c3ccc(Cl)cc3)nc2n1)c1ccccc1`, the melting point fell in the range of 156 to 158 °C.

The molecule `Cc1nc2c(-c3ccc(N4CCN(C)CC4)cc3)cnn2c(N)c1-c1ccc(F)c(Cl)c1` displayed a melting point of 264 to 265 °C.

Regarding `O=S(=O)(Nc1ccccc1COc1cccc2cccnc12)c1ccc(F)cc1`, the melting point lay within 121 to 122 °C.

As to `Cc1cccc(-c2nc(=O)c3ccccc3s2)n1`, the melting point was 170 °C.

As for `CCOC(=O)c1cn2c(ccc3ccc(Cl)cc32)n1`, the melting point lay in the range of 221 to 222 °C.

In the case of `O=C1Cc2cc(Oc3ccccc3)ccc2N1`, the melting point was 148 to 150 °C.

In the case of `O=C(O)CCCC1Cc2ccccc2C1`, the melting point is 75 °C.

Consider `Nc1nc(N)c2cc(Cc3ccc(F)cc3)ccc2n1`, for which the melting point fell in the range of 214 to 216 °C.

For the molecule `C=CCN1CCCNC1=C[N+](=O)[O-]`, the melting point was 125 to 126 °C.

As for `O=C1CCS(=O)(=O)c2sccc21`, the melting point lay in the range of 121 to 122 °C.

Molecule `CCOC(=O)COC(=O)c1c(I)c(NC(C)=O)c(I)c(NC(C)=O)c1I` returned a melting point of 270 °C.

`CC(=O)CCCCN1CCN(c2ncccn2)CC1` yielded a melting point of 44 to 47 °C.

Consider `O=C(Cn1c(-c2ccc(Cl)cc2)ncc(NC(=O)OCc2ccccc2)c1=O)NC(Cc1ccccc1)C(=O)C(F)(F)F` (stereo not drawn), for which the melting point was in the range of 199 to 201 °C.

For `CN(C=C(C#N)C(=O)Nc1ccccc1Cl)Cc1ccccc1Cl`, the melting point was 138 to 139 °C.

Consider `COc1ccc(-c2[nH]nc3c2C(=O)c2c(NC(=O)N[C@@H]4CCCC[C@@H]4N)cccc2-3)cc1` (relative stereo), for which the melting point is more than 300 °C.

In the case of `CC(C)NC(=O)CCCCc1cc(O)c(O)c([N+](=O)[O-])c1`, the melting point was 113 to 115 °C.

In turn, `COc1cc(C)cc(-c2nn(CC#N)cc2-c2cc(NC[C@H](C)O)nc(-c3cccnc3)n2)c1` registered a melting point of 200 °C.

`CC(=O)Nc1nc(CCc2ccc(NC(=N)NN)cc2)cs1` showed a melting point of 216 to 218 °C.

In the case of `CS(=O)(=O)c1ccccc1-c1cc(CCO)nn1C1CCCCC1`, the melting point was 108 °C.

`N#Cc1ccc(OCCCCCI)cc1` registered a melting point of 51 to 54 °C.

For `COc1ccc(C=CC(=O)Nc2cccc(C(=O)O)c2)cc1OC`, the melting point lay in the range of 225 to 226 °C.

With `CCOC(=O)c1cn(C)c2cc(C)sc2c1=O`, the melting point was in the range of 143 to 144 °C.

Consider `O=C(Nc1ccc2ccc(Cl)nc2n1)c1cccs1`, for which the melting point came to 244 °C.

`COC(=O)C1=C(C)NC(C)=C(C(=O)OCCC#N)C1c1cccc2c(=O)c(C)c(-c3ccccc3)oc12` (stereo not drawn): the melting point lay within 190 to 192 °C.
